The results in this text go back to PubChem BioAssay (NCI).

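Grown in 96-well plates, cells were treated for 48 hours with each compound at five concentrations. Insufficient inhibition: endpoint recorded as highest concentration tested. Definition used: TGI = concentration required for complete inhibition of growth.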 Some results are limits rather than exact numbers.

Assay in all cases: inhibition of tumour cell growth, NCI panel, 48 h
The subject of assay [1] is ACHN renal.
In assay [2] the test system is DU-145 prostate.
Assay [3] relates to HCT-15 colon.
For assay [4], the system named is HL-60(TB) leukemia.
For assay [5], the system named is HOP-92 NSCLC.
For assay [6], the system named is HT29 colon.
Assay [7] has as its system IGROV1 ovarian.
Assay [8] deals with LOX IMVI melanoma.
Assay [9] concerns M14 melanoma.
The test system of assay [10] is NCI-H23 lung.
The subject of assay [11] is NCI-H522 lung.
The subject of assay [12] is OVCAR-3 ovarian.
Assay [13] relates to PC-3 prostate.
Assay [14] deals with SF-539 CNS.
The test system of assay [15] is SK-MEL-2 melanoma.
The test system of assay [16] is SK-MEL-5 melanoma.
In assay [17] the test system is SK-OV-3 ovarian.
Assay [18] concerns SN12C renal.
Assay [19] deals with SW-620 colon.
The subject of assay [20] is UACC-257 melanoma.

For the compound `NC(CCC(=O)NC(CSCC1C(=O)Nc2ccccc21)C(=O)NCC(=O)O)C(=O)O` (stereo unspecified), the TGI in assay [1] came out at 20 µM; in assay [2], 12.9 µM; in [3] it was 11 µM; in assay [4] it was 47.5 µM; in assay [5], 9.55 µM; in [6] it was 14.7 µM. Further, the TGI stood at 13 µM in assay [7]; 2.78 µM in [8]; 10.8 µM in assay [9]; 11.3 µM in [10]; 2.8 µM in [11]; 11.2 µM in assay [12]. In addition, the TGI is 49 µM in assay [13]; 18.3 µM in assay [14]; 25.4 µM in [15]; over 44.8 µM in assay [16]; over 49.4 µM in [17]; 13.9 µM in [18]. Also, the TGI in assay [19] came out at 10.7 µM; in assay [20], 19.5 µM.

As to `O=C(O)c1ccc(OCc2nc3cc(C(F)(F)F)ccc3nc2-c2ccccc2)cc1`, the TGI in assay [1] is 67.6 µM; in assay [2], over 100 µM; in [3], over 100 µM; in assay [4], over 100 µM; in [5], over 100 µM; in assay [6] it was over 100 µM. In addition, the TGI in [7], in [8], in assay [9], in assay [10], in [11] and in [12] was over 100 µM each time. For the same compound, the TGI was over 100 µM in assay [13]; 76.8 µM in assay [14]; over 100 µM in assay [15]; over 100 µM in assay [16]; over 100 µM in assay [18]; over 100 µM in assay [19]. Also, the TGI in assay [20] was over 100 µM.

Take `C=CCOc1ccc(C2(O)c3ccccc3C3=NCCCN32)cc1` (stereo unspecified): the TGI was over 72.2 µM in assay [1]; over 100 µM in assay [2]; over 100 µM in [3]; over 100 µM in assay [4]; over 100 µM in [5]; over 100 µM in assay [6]. Besides, the TGI is over 100 µM in [7]; over 100 µM in [8]; 35.1 µM in assay [9]; over 100 µM in [10]; over 100 µM in assay [11]; over 100 µM in [12]. Further, the TGI was over 100 µM in assay [13]; over 100 µM in assay [14]; 47 µM in assay [15]; 45.7 µM in assay [16]; over 100 µM in assay [17]; over 100 µM in assay [18]. The TGI was over 100 µM in assay [19] and 52.7 µM in [20].

`Cc1cc(NCc2ccccc2)c2ccccc2[n+]1CCCCCCCCCC[n+]1c(C)cc(NCc2ccccc2)c2ccccc21`: the TGI was 2.92 µM in [1]; 10.9 µM in [2]; 5.88 µM in [3]; 1.19 µM in assay [4]; 2.25 µM in assay [5]; 1.63 µM in assay [6]. The TGI is over 100 µM in assay [7]; 3.22 µM in assay [9]; 1.86 µM in assay [10]; 44.3 µM in assay [11]; 5.16 µM in [13]; 1.13 µM in [14]. Besides, the TGI was 2.08 µM in [15]; 0.638 µM in assay [16]; 6.85 µM in assay [17]; 1.08 µM in [18]; 4.31 µM in [19]; 1.31 µM in [20].

As to `C=CC[C@]12C=C(OC)[C@@H](O)[C@](OC)(C(c3cc(OC)c4c(c3)OCO4)[C@H]1C)[C@H]2OC(C)=O` (stereo partly specified), the TGI in assay [1], in [2], in assay [3], in assay [4], in assay [5] and in [6] was over 100 µM in each case. Moreover, the TGI in [7], in assay [9], in assay [10], in [11], in assay [12] and in assay [13] was over 100 µM each time. For the same compound, the TGI in assay [14], in assay [15], in assay [16], in assay [17], in [18] and in assay [19] was over 100 µM in each case. In addition, the TGI in assay [20] was over 100 µM.

On to `C=C([C@@]1(O)C[C@H]2[C@H](CCC2(OC)OC)[C@@H]2c3ccccc3O[C@@H]21)[Si](C)(C)C`, for which the TGI was over 100 µM in [1]; over 100 µM in assay [2]; over 100 µM in assay [3]; 98.6 µM in [4]; over 100 µM in assay [5]; over 100 µM in assay [6]. Moreover, the TGI in [7], in assay [8], in assay [9], in [11], in [12] and in [13] was over 100 µM each time. The TGI in assay [14], in [15], in assay [16], in assay [17], in assay [18] and in assay [19] was over 100 µM each time. Also, in assay [20], the TGI is over 100 µM.

`C=C1CN2CC(=C)CN(C1)CS(=O)(=O)N1CC(=C)CN(CC(=C)C1)S(=O)(=O)N1CC(=C)CN(CC(=C)C1)S(=O)(=O)C2`: the TGI in assay [1], in assay [2], in assay [3], in assay [4], in assay [5] and in [6] was over 100 µM throughout. Also, the TGI in [7], in assay [8], in assay [9], in assay [10], in assay [11] and in assay [12] was over 100 µM each time. The TGI is 38.6 µM in [13]; 39.9 µM in [14]; over 100 µM in assay [15]; 48 µM in assay [16]; over 100 µM in [18]; over 100 µM in assay [19]. This compound came in with a TGI in [20] of 94.4 µM.

Turning to `O=c1oc2ccc([N+](=O)[O-])cc2c(Nc2ccc3c(c2)Oc2ccccc2O3)c1[N+](=O)[O-]`, the TGI was over 100 µM in [1]; over 100 µM in [2]; over 100 µM in [3]; 40.2 µM in [4]; 54.1 µM in [5]; over 100 µM in [6]. The TGI was over 100 µM in assay [7]; 94 µM in [8]; over 100 µM in assay [9]; 62.3 µM in assay [10]; over 100 µM in assay [11]; over 100 µM in [12]. Also, the TGI in assay [13] is 55.4 µM; in assay [14], 61.1 µM; in [15] it was 44.2 µM; in [16], 76 µM; in assay [17], over 100 µM; in assay [18], over 100 µM. The compound further displayed a TGI in assay [20] of 76.6 µM.

Turning to `COc1ccc2cc(C(C)C(=O)N3CCOC3=O)ccc2c1` (stereo unspecified), the TGI in [1], in [2], in assay [3], in [4], in assay [5] and in [6] was over 100 µM in each case. Also, the TGI in assay [7], in assay [8], in assay [9], in assay [10], in assay [11] and in assay [12] was over 100 µM in each case. Moreover, the TGI in assay [13], in assay [14], in assay [16], in assay [17], in assay [18] and in assay [19] was over 100 µM each time. The TGI in [20] was over 100 µM.

On to `C=C(Cl)C(C)(Cl)CCC(Br)C(C)(C)Cl` (stereo unspecified), for which the TGI in [1] is 31.8 µM; in assay [2], 47.5 µM; in assay [4], over 100 µM; in [5], 36.5 µM; in [6], 29.5 µM; in assay [7], 90.9 µM. Further, the TGI in [8] was 28 µM; in assay [9] it was 34.7 µM; in [10], 50.7 µM; in assay [11] it was 23.5 µM; in [12] it was 32.4 µM; in assay [13], over 100 µM. Besides, the TGI in [14] amounted to 71.7 µM; in assay [15], 37.6 µM; in [16], 30.8 µM; in assay [17], 39.2 µM; in assay [18], 31.6 µM; in assay [19], 30.9 µM. The same compound yielded a TGI in [20] of 30.5 µM.

`C=CCOc1ccc(C2C(C(=O)OCC)C(=O)CC(C)(O)C2C(=O)OCC)cc1OC` (stereo unspecified): the TGI in [1], in assay [2], in [3], in [4], in [5] and in assay [6] was over 100 µM throughout. The TGI in assay [7], in [8], in assay [9], in assay [10], in assay [11] and in [12] was over 100 µM throughout. Besides, the TGI in [13], in assay [14], in [15], in assay [16], in assay [18] and in assay [19] was over 100 µM in each case. Besides, in assay [20], the TGI is over 100 µM.

With `Cc1ccc2c(c1)C(=O)C1(C2)Cc2cccc(C)c2C1=O` (stereo unspecified), the TGI in [1], in [2], in assay [3], in assay [4], in assay [5] and in assay [6] was over 100 µM each time. In addition, the TGI in assay [7], in assay [8], in [9], in [10], in assay [11] and in assay [12] was over 100 µM each time. The TGI in assay [13], in [14], in assay [16], in [17], in assay [18] and in [19] was over 100 µM each time. In addition, the TGI in assay [20] is over 100 µM.

Consider `Cc1ccc(S(=O)(=O)NC(=O)N[C@@H](Cc2cnc[nH]2)C(=O)O)cc1`, for which the TGI in [1], in assay [2], in assay [3], in assay [4], in assay [5] and in assay [6] was over 100 µM each time. Moreover, the TGI in assay [7], in assay [8], in assay [9], in assay [10], in [11] and in [13] was over 100 µM each time. Moreover, the TGI in assay [14], in [15], in assay [16], in [17], in assay [18] and in assay [19] was over 100 µM each time. The same compound gave a TGI in assay [20] of over 100 µM.

As to `CC(=O)OCC1OC(n2c3c(cc(C#N)c2=S)CCCCC3)C(OC(C)=O)C(OC(C)=O)C1OC(C)=O` (stereo unspecified), the TGI in [1], in assay [2], in assay [3], in assay [4], in assay [5] and in assay [6] was over 100 µM each time. The TGI in assay [7], in assay [8], in assay [9], in assay [10], in assay [11] and in assay [12] was over 100 µM in each case. Moreover, the TGI in assay [13], in assay [14], in [15], in assay [16], in assay [18] and in assay [20] was over 100 µM in each case.
